From patent US12263171B2, “7-, 8-, and 10-substituted amino triazolo quinazoline derivatives as adenosine receptor antagonists, pharmaceutical compositions and their use” (Merck Sharp & Dohme LLC, priority 2018, dated 2025)
pIC50: −log10 of the molar value.

What was measured:
[1] = biological target: human A2a adenosine receptor (Homo sapiens (Human), UniProt P29274); test: A2a receptor affinity radioligand binding assay ([3H] SCH58261, membranes from HEK293 or CHO cells); settings: unstarred values: radioligand binding
Procedure, shortened: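 Displacement of tritiated SCH58261 (working dilution 4 nM) from recombinant human A2a receptor membranes (HEK293 or CHO), 60 min at room temperature in Tris pH 7.4/MgCl2 buffer after 15–30 min compound preincubation. Scintillation counting after filtration; normalized percent effect fitted 4-parameter logistic for IC50.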

[2] = biological target: human A2b adenosine receptor (Homo sapiens (Human), UniProt P29275); test: A2B antagonism in cAMP cell-based assay (LANCE cAMP, HEK293 cells, 600 nM adenosine); settings: for pIC50: values marked *: cAMP cell-based assay; for *A2B cAMP % inh. @ 10000 nM: marked *
Protocol: Measurement of A2A and A2B Antagonism in cAMP Cell-Based Assay
All subsequent liquid additions were performed using a multichannel pipettor. […] After this time 5 μL of either 300 nM or 600 nM adenosine (Sigma Cat. No. A9251) for A2A and A2B respectively was added and incubated for 30 minutes at 37° C. and 5% CO2 in a humidified environment. At this time detection mix was prepared by combining the LANCE Eu-W8044 labeled streptavidin and. Biotin-cAMP in detection buffer according to the manufacturers protocol. […] Curve fitting of the percent effect data versus the log of compound concentration used a 4-parameter concentration response curve fitting algorithm to calculate IC50 values.

Chain of human A2a adenosine receptor (P29274 whole entry): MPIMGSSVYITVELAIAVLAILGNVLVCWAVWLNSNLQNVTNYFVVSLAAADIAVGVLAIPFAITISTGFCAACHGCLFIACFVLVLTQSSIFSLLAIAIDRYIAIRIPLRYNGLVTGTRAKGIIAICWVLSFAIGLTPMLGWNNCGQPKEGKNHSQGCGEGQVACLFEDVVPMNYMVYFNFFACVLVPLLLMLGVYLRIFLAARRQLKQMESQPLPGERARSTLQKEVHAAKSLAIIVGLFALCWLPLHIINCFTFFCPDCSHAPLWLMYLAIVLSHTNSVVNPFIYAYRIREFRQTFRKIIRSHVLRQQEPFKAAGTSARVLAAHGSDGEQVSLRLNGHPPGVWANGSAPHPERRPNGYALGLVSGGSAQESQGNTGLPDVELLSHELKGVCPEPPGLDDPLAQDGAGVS
Chain of human A2b adenosine receptor (P29275 whole entry): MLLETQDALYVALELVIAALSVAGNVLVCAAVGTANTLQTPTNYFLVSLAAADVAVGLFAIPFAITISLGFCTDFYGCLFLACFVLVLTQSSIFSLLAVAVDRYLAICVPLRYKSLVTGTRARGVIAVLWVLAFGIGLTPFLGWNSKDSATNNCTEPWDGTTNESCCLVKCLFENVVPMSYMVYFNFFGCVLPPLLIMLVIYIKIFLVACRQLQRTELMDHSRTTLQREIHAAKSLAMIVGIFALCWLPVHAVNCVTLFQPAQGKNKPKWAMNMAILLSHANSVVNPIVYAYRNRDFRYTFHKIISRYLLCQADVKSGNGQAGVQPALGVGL

pIC50 [1]	pIC50 [2]	*A2B cAMP % inh. @ 10000 nM [2] [% inh. @ 10000 nM*]	SMILES
8.66	6.15	–	COc1cccc2c1nc(N)n1nc(C3CCC(C)N(c4cnn(C5CC5)c4)C3)nc21 (single isomer, unassigned) [Example 141A]
7.55	5.58	–	COc1cccc2c1nc(N)n1nc(C3CCC(C)N(c4cnn(C5CC5)c4)C3)nc21 (single isomer, unassigned) [Example 141B]
8.51	5.78	–	COc1cccc2c1nc(N)n1nc(C3CCC(C)N(c4cnn(C5CC5)c4)C3)nc21 (single isomer, unassigned) [Example 141D]
7.27	6.01	–	COc1cccc2c1nc(N)n1nc(C3CCC(C)N(c4cnn(CC(F)(F)F)c4)C3)nc21 (single isomer, unassigned) [Example 142A, 7-methoxy-2-((3S,6S or 3R,6R)-6-methyl-1-(1-(2,2,2-trifluoroethyl)-1H-pyrazol-4-yl)piperidin-3-yl)-[1,2,4]triazolo[1,5-c]quinazolin-5-amine]
9.10	5.94	–	COc1cccc2c1nc(N)n1nc(C3CCC(C)N(c4cnn(CC(F)(F)F)c4)C3)nc21 (single isomer, unassigned) [Example 142B, 7-methoxy-2-((3R,6R or 3S,6S)-6-methyl-1-(1-(2,2,2-trifluoroethyl)-1H-pyrazol-4-yl)piperidin-3-yl)-[1,2,4]triazolo[1,5-c]quinazolin-5-amine]
9.05	8.03	–	COc1cccc2c1nc(N)n1nc(C3CCC(C)N(c4cnn(CC(F)(F)F)c4)C3)nc21 (single isomer, unassigned) [Example 142D]
9.05	6.22	–	COc1cccc2c1nc(N)n1nc(C3CCC(C)N(c4cnn(CC(C)(C)O)c4)C3)nc21 (single isomer, unassigned) [Example 143B, 1-(4-((2S,5S or 2R,5R)-5-(5-amino-7-methoxy-[1,2,4]triazolo[1,5-c]quinazolin-2-yl)-2-methylpiperidin-1-yl)-1H-pyrazol-1-yl)-2-methylpropan-2-ol]
7.50	6.19	–	COc1cccc2c1nc(N)n1nc(C3CCC(C)N(c4cnn(CC(C)(C)O)c4)C3)nc21 (single isomer, unassigned) [Example 143C]
8.92	8.40	–	COc1cccc2c1nc(N)n1nc(C3CCC(C)N(c4cnn(CC5(O)CCC5)c4)C3)nc21 (single isomer, unassigned) [Example 144D]
9.10	6.41	–	COc1cccc2c1nc(N)n1nc(C3CN(c4cnn(C5CC5)c4)CC(F)(F)C3)nc21 (single isomer, unassigned) [Example 154A]
7.76	–	13	COc1cccc2c1nc(N)n1nc(C3CN(c4cnn(C5CC5)c4)CC(F)(F)C3)nc21 (single isomer, unassigned) [Example 154B]
7.92	5.88	–	COc1cccc2c1nc(N)n1nc(C3CN(c4cnn(CC(F)(F)F)c4)CC(F)(F)C3)nc21 (single isomer, unassigned) [Example 155A]
9.15	6.52	–	COc1cccc2c1nc(N)n1nc(C3CN(c4cnn(CC(F)(F)F)c4)CC(F)(F)C3)nc21 (single isomer, unassigned) [Example 155B]
8.66	5.86	–	COc1cccc2c1nc(N)n1nc(C3CN(c4cnn(CC(C)(C)O)c4)CC(F)(F)C3)nc21 (single isomer, unassigned) [Example 156B, (R or S)-1-(4-(5-(5-amino-7-methoxy-[1,2,4]triazolo[1,5-c]quinazolin-2-yl)-3,3-difluoropiperidin-1-yl)-1H-pyrazol-1-yl)-2-methylpropan-2-ol]
8.62	6.31	–	CC[C@@H]1CC[C@H](c2nc3c4cccc(OC)c4nc(N)n3n2)CN1c1cnn(CC(C)(C)O)c1 (single isomer, unassigned) [Example 216D]
7.29	–	9	COc1ccc2c(c1)nc(N)n1nc([C@H]3C[C@H](C(F)(F)F)CN(c4cnn(CC(C)(C)O)c4)C3)nc21 (single isomer, unassigned) [Example 218A, 1-(4-((3S,5S or 3R,5R)-3-(5-amino-8-methoxy-[1,2,4]triazolo[1,5-c]quinazolin-2-yl)-5-(trifluoromethyl)piperidin-1-yl)-1H-pyrazol-1-yl)-2-methylpropan-2-ol]
8.88	6.09	–	COc1ccc2c(c1)nc(N)n1nc([C@@H]3C[C@H](C)CN(c4cnn(C(C)(C)CO)c4)C3)nc21 (single isomer, unassigned) [Example 222A]
9.00	6.12	–	COc1cccc2c1nc(N)n1nc([C@@H]3CCCN(c4cnn(C)c4C(F)(F)F)C3)nc21 [Example 2, (R)-7-methoxy-2-(1-(1-methyl-5-(trifluoromethyl)-1H-pyrazol-4-yl)piperidin-3-yl)-[1,2,4]triazolo[1,5-c]quinazolin-5-amine]
8.89	7.37	–	COc1cccc2c1nc(N)n1nc([C@@H]3CCCN(c4cnn(C(F)F)c4)C3)nc21 [Example 3, (R)-2-(1-(1-(difluoromethyl)-1H-pyrazol-4-yl)piperidin-3-yl)-7-methoxy-[1,2,4]triazolo[1,5-c]quinazolin-5-amine]
8.85	7.31	–	CCn1cc(N2CCC[C@@H](c3nc4c5cccc(OC)c5nc(N)n4n3)C2)cn1 [Example 4, (R)-2-(1-(1-ethyl-1H-pyrazol-4-yl)piperidin-3-yl)-7-methoxy-[1,2,4]triazolo[1,5-c]quinazolin-5-amine]
8.62	7.40	–	COc1cccc2c1nc(N)n1nc([C@@H]3CCCN(c4cnn(C(C)C)c4)C3)nc21 [Example 5, (R)-2-(1-(1-isopropyl-1H-pyrazol-4-yl)piperidin-3-yl)-7-methoxy-[1,2,4]triazolo[1,5-c]quinazolin-5-amine]
8.89	7.52	–	COc1cccc2c1nc(N)n1nc([C@@H]3CCCN(c4cnn(C(C)(C)C)c4)C3)nc21 [Example 6, (R)-2-(1-(1-(tert-butyl)-1H-pyrazol-4-yl)piperidin-3-yl)-7-methoxy-[1,2,4]triazolo[1,5-c]quinazolin-5-amine]
8.85	7.41	–	COc1cccc2c1nc(N)n1nc([C@@H]3CCCN(c4cnn(C5CC5)c4)C3)nc21 [Example 7, (R)-2-(1-(1-cyclopropyl-1H-pyrazol-4-yl)piperidin-3-yl)-7-methoxy-[1,2,4]triazolo[1,5-c]quinazolin-5-amine]
8.85	6.68	–	COc1cccc2c1nc(N)n1nc([C@@H]3CCCN(c4cnn(CC5CCC5)c4)C3)nc21 [Example 8, (R)-2-(1-(1-(cyclobutylmethyl)-1H-pyrazol-4-yl)piperidin-3-yl)-7-methoxy-[1,2,4]triazolo[1,5-c]quinazolin-5-amine]
8.82	6.60	–	COc1cccc2c1nc(N)n1nc([C@@H]3CCCN(c4cnn(C)c4C)C3)nc21 [Example 10, (R)-2-(1-(1,5-dimethyl-1H-pyrazol-4-yl)pipiperidin-3-yl)-7-methoxy-[1,2,4]triazolo[1,5-c]quinazolin-5-amine]
